Laboratory results: patent publication US20120034296A1 (priority 2009, published 2012)
Where a name gives a salt, the structure may show the parent alone. Read-outs that look alike come from different tables or passages of the source.

Tests used:
[1] = system: Gadd45a, ATF3, SmagP, Cacna2d1; conditions: rat, in vivo

## CN(C)CCC=C1c2ccccc2CCc2ccccc21 [amitriptyline]
[1]
  expression of Gadd45a, ATF3, SmagP, Cacna2d1 in dorsal root ganglia: dramatically upregulated

## CCCCN1CCCCC1C(=O)Nc1c(C)cccc1C (stereo not shown) [bupivacaine solution, bupivacaine hydrochloride]
C2C12 cells
  myotoxicity: increased with concentration and duration of exposure
PC12 cells
  neurotoxicity / cytotoxicity: increased with concentration and duration of exposure

## C[C@@H]1C[C@H]2[C@@H]3CCC4=CC(=O)C=C[C@]4(C)[C@@]3(F)[C@@H](O)C[C@]2(C)[C@@]1(O)C(=O)CO [dexamethasone]
C2C12 cells; mouse
  myotoxicity: not myotoxic at up to 2 days
  survival: 80±5%
  viability: > 90%
PC12 cells; rat
  decrease in survival: 20%
